Laboratory results published in US12678501B2, “Modulating permeability of the blood cerebrospinal fluid barrier” (MEMORIAL SLOAN-KETTERING CANCER CENTER, priority 2015, dated 2026).
One block for each compound: values may come before it.

Key:
MDA231-LeptoM cells = test: Leptomeningeal metastasis model, MDA231-LeptoM cells into cisterna magna, BLI; format: in vivo, mouse; conditions: vs vehicle; for tumor growth within the leptomeninges (bioluminescent imaging): 2,000 MDA LeptoM cells into cisterna magna
Procedure: (§1) FIG. 11A-11C. C3aR as a therapeutic target in leptomeningeal metastasis. (A) 2,000 MDA231-LeptoM cells were introduced into the cisterna magna on day 0. Mice were treated with 10 mg/kg C3aR agonist (Ag), 10 mg/kg antagonist (Ant) or vehicle (Veh) I.P. twice weekly, tumor cell growth was monitored by BLI. n=10 mice per group. ****p<0.0001 (B) Survival analysis of mice treated in (A). (C) 2,000 MDA231-LeptoM, PC9-LeptoM, HCC1954-LeptoM or LCC-LeptoM cells were introduced into the CSF on day 0 and treated with Veh or Ant as described in (A). n=10 mice per group. BLI on day 14 is illustrated. *p<0.05; **p<0.01; *** p<0.001.
In light of the cancer cell dependence on C3 for growth within the leptomeningeal space, as well as C3aR's importance in maintenance of CP barrier function, we elected to assay C3aR antagonist as well as agonists in models of leptomeningeal metastasis. First, 2,000 MDA LeptoM were injected into the cisterna magna of recipient mice. Next, treatment with either vehicle, C3aR agonist or antagonist was initiated. Tumor growth was followed with bioluminescent imaging FIG. 11A.
(§2) Cells corresponding to each of these models were inoculated into the leptomeningeal space of recipient mice on Day 0. Daily systemic treatment with C3aR antagonist SB290157 began on Day 1. Bioluminescent imaging to quantitate tumor cell growth is shown for each of the models, FIG. 11C. […] In this approach, maintenance of B-CSF-B integrity inhibits cancer cell survival by inhibiting cancer cell access to plasma components, including protein, growth factors and metabolic intermediates.

[1] = Amphiregulin ELISA in CSF and plasma after parenteral C3a; format: in vivo; conditions: mouse models, after parenteral administration
Excerpt: FIG. 10A-10D. C3 conditioned CSF by opening the blood-CSF-barrier. (A) Commercial dot-blot array was employed to measure proteins present in CSF of two patients without leptomeningeal metastasis, who later developed leptomeningeal metastasis. […] (B) LLC-LeptoM cells instilled into the cisterna magna of C3aR wild-type (^+/+) or knock-out (^−/−) syngenic mice. Tumor growth was monitored by BLI. (C) ELISA for amphiregulin of CSF from suspected of leptomeningeal metastasis. Final clinical diagnosis is indicated. (D) Mice were parenterally pretreated with recombinant mouse […] or vehicle (green) as described in FIG. 7E. Amphiregulin was measured by ELISA in CSF and plasma.
Leptomeningeal metastasis alters the composition of the CSF (FIG. 10A), including the growth factor amphiregulin (FIG. 10C). Cancer cell growth within the leptomeningeal space is improved in the presence of the C3aR in our models of leptomeningeal metastasis (FIG. 10B) after parenteral administration of C3a, serum amphiregulin is elevated within the CSF in mouse models.

C3aR = target: T1, C3aR (Mus musculus, UniProt O09047); test: Passage of fluorescently labeled dextrans from blood to CSF in vivo; conditions: dextrans of 40 kDa and smaller; CSF sampled 30 minutes after intracardiac dextran; C3aR-dependent (wild type vs knockout mice)
T1 construct: from tissue; host or cells: living mice (in vivo)
T1 sequence (O09047 1-477): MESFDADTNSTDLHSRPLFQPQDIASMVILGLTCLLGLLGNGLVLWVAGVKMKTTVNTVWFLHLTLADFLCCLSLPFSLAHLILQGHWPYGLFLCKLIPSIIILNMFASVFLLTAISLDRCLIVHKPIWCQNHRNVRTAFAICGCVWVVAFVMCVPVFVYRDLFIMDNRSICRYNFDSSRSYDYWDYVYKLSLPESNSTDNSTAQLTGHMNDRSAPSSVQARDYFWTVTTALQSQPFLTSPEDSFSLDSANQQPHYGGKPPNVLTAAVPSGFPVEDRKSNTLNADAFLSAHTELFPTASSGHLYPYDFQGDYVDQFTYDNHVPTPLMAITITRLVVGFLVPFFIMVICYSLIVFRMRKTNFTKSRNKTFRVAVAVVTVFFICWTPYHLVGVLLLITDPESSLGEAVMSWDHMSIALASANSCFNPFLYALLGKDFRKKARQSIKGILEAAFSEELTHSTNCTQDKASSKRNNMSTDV
Excerpt: (§3) FIG. 7A-7F. C3aR activation alters B-CSF-barrier integrity. (A) Immunofluorescence of mouse choroid plexus for C3aR (red) and the apically expressed SPAK (green). (B) Trans-epithelial resistance in response to C3a in an in vitro model of B-CSF-B employing human choroid plexus epithelial cells (HuCPEpi). (C) Conditioned medium from MDA231 Parental cells (green) supplemented with recombinant mouse C3a (open circles) or vehicle (closed circles) was used to treat the monolayer prior to TEER measurements. (D) Conditioned medium from MDA231 LeptoM cells was not treated with antibody (closed circle), or immunodepleted with anti-C3 (open circles) or IgG control (black squares) prior to TEER measurements. (E) Mice (C3aR^+/+ or ^−/−) were parenterally pretreated with recombinant mouse C3a or vehicle prior to intracardiac infusion of mixed fluorescently labeled dextrans. 30 minutes later, CSF and blood were sampled and analyzed by fluorimetry. In the bar graphs, for each dextran size, fluorescence in animals treated with rmC3a is represented by the bar on the right (vehicle represented by the bar on the left). […]
(§4) The passage of larger molecules was assessed through the use of fluorescently labeled Dextran passage in vivo. […] Thirty minutes after this treatment, CSF was sampled by cisternal tap, and presence of the derivatized dextran was assayed by fluorescence. […]

[2] = system: human choroid plexus epithelial cells (HuCPEpi); test: Trans-epithelial electrical resistance (TEER) in in vitro model of B-CSF-B; format: cell-based; conditions: HuCPEpithelial cells on laminin-coated transwells, after addition of recombinant C3a
Excerpt: FIG. 7A-7F. C3aR activation alters B-CSF-barrier integrity. (A) Immunofluorescence of mouse choroid plexus for C3aR (red) and the apically expressed SPAK (green). (B) Trans-epithelial resistance in response to C3a in an in vitro model of B-CSF-B employing human choroid plexus epithelial cells (HuCPEpi). (C) Conditioned medium from MDA231 Parental cells (green) supplemented with recombinant mouse C3a (open circles) or vehicle (closed circles) was used to treat the monolayer prior to TEER measurements. (D) Conditioned medium from MDA231 LeptoM cells was not treated with antibody (closed circle), or immunodepleted with anti-C3 (open circles) or IgG control (black squares) prior to TEER measurements. (E) Mice (C3aR^+/+ or ^−/−) were parenterally pretreated with recombinant mouse C3a or vehicle prior to intracardiac infusion of mixed fluorescently labeled dextrans. 30 minutes later, CSF and blood were sampled and analyzed by fluorimetry. In the bar graphs, for each dextran size, fluorescence in animals treated with rmC3a is represented by the bar on the right (vehicle represented by the bar on the left). (F) Mouse choroid plexus treated with C3a or vehicle for 2 hours prior to fixation and staining for ZO-1 and Claudin.
To address the hypothesis that C3aR might function similarly in the choroid plexus, we first established the presence of C3aR on choroid plexus epithelium (FIG. 7A). […]

[3] = system: choroid plexus epithelial cells; test: Tight junction staining (ZO-1, claudin immunofluorescence) of choroid plexus; conditions: mouse choroid plexus treated 2 hours prior to fixation
Excerpt: as §3, §4

PC9-LeptoM cells = test: Leptomeningeal metastasis model, PC9-LeptoM cells, BLI; format: in vivo, mouse; conditions: systemic treatment from Day 1, BLI on day 14, vs vehicle
Procedure: as §1, §2

LLC-LeptoM cells = test: Leptomeningeal metastasis model, LLC-LeptoM cells, BLI; format: in vivo, mouse; conditions: systemic treatment from Day 1, BLI on day 14, vs vehicle
Procedure: as §1, §2

HCC1954-LeptoM cells = test: Leptomeningeal metastasis model, HCC1954-LeptoM cells, BLI; format: in vivo, mouse; conditions: systemic treatment from Day 1, BLI on day 14, vs vehicle
Procedure: as §1, §2

Compound: O=C(NC1CCN(C(=O)CCc2cccnc2)CC1)C(c1ccccc1)C1CCCCC1 (stereo not drawn) [C3aR agonist, α-cyclohexyl-N-[1-[1-oxo-3-(3-pyridinyl)propyl]-4-piperidinyl]-benzeneacetamide]
tumor growth within the leptomeninges (bioluminescent imaging) (MDA231-LeptoM cells; 10 mg/kg I.P. twice weekly): accelerated

passage of dextrans from blood to CSF (C3aR): increased
Compound: recombinant C3a: recombinant C3a, hydrolysis fragment of complement C3, ligand of the C3aR receptor
amphiregulin within the CSF [1]: elevated
resistance across the monolayer (TEER) [2]: reduced
tight junctions between choroid plexus epithelial cells (claudin immunofluorescence) [3]: disorganization of tight junctions

Compound: N=C(N)NCCC[C@H](NC(=O)COCC(c1ccccc1)c1ccccc1)C(=O)O [SB290157, N2-[2-(2,2-diphenylethoxy)acetyl]-L-arginine, 2,2,2-trifluoroacetate]
tumor growth within the leptomeninges (bioluminescent imaging) (MDA231-LeptoM cells; 10 mg/kg I.P. twice weekly): slowed
leptomeningeal tumor growth (BLI) (MDA231-LeptoM cells; MDA231 model, systemic treatment from Day 1, BLI on day 14): less leptomeningeal tumor growth
survival (MDA231-LeptoM cells; MDA LeptoM model, 10 mg/kg I.P. twice weekly): survival benefit
leptomeningeal tumor growth (BLI) (PC9-LeptoM cells): less leptomeningeal tumor growth
leptomeningeal tumor growth (BLI) (LLC-LeptoM cells): less leptomeningeal tumor growth
leptomeningeal tumor growth (BLI) (HCC1954-LeptoM cells): less leptomeningeal tumor growth
